Experimental data reported in patent US7629002B2, “Antimicrobial polymeric compositions and method of treatment using them” (Chemeq Ltd., priority 2000, dated 2009).

Key:
E. coli = experiment: MKC of preservatives and synergy (Example 14); assay type: cell-based
Procedure: (§1) Overnight broths of challenge cultures were prepared and the Total Viable Count (TVC) of the overnight cultures was estimated.
(§2) The samples were serially diluted 1 to 1 using sterile normal saline (5 mL). Sterile Hard Water (SHW) was used as diluent when testing samples containing EDTA.
(§3) 1 part of each overnight culture was diluted in 9 parts diluent. The resulting diluted suspensions were used as the inocula.
(§4) Inoculate each sample dilution with 100 μL of the diluted overnight culture. (One culture per tube). Mix well.
(§5) The tubes were incubated for ≦24 hours at 37° C. (A. niger was incubated at 28° C. for ≦24 hours).
(§6) From each test tube, 1 mL was subcultured into 9 mL of recovery broth and mixed well (Recovery Broths: Nutrient Broth+3% Tween 80 (NBT) for polymeric antimicrobial and EDTA; Nutrient Broth+3% Tween 80+(NBTA) for glutaraldehyde and, Letheen Broth (LB) for methyl parabens).
(§7) The samples incubated at 37° C. for a further ≦48 hours. (28° C. for ≦5 days for A niger).
(§8) Each tube was examined for growth. All tubes were then subcultured onto selective agar and incubated for ≦24 hours at 37° C. (28° C. for ≦5 days for A. niger). Growth on selective agar was taken to confirm growth of the test organism.

S. aureus = experiment: MKC of preservatives and synergy (Example 14); assay type: cell-based
Procedure: as §1, §2, §3, §4, §5, §6, §7, §8

A. niger = experiment: MKC of preservatives and synergy (Example 14); assay type: cell-based; conditions: polymer 0.2% w/w
Procedure: as §1, §2, §3, §4, §5, §6, §7, §8

C. albicans = experiment: MKC of preservatives and synergy (Example 14); assay type: cell-based; conditions: polymer 0.2% w/w, mix as ratio
Procedure: as §1, §2, §3, §4, §5, §6, §7, §8

P. aeruginosa = experiment: MKC of preservatives and synergy (Example 14); assay type: cell-based
Procedure: as §1, §2, §3, §4, §5, §6, §7, §8

[1] = in vivo
From the text: Chickens treated each of the antimicrobials were compared with a control group according to the following procedure:
In each trial 20 Cob chickens (Line 53), day old were purchased from a commercial hatchery. They were weighed, sexed and randomly assigned into adjacent pens in a room of an isolated animal house. There was an even distribution of male and female chickens. Water and feed were available ad libitum. The diet was a commercial crumble (Chick Starter, Milne Feeds: 18% crude protein) with a coccidiostat present (125 ppm Dinitolomide).
Ten chickens were administered the formulation of 0.1% w/w of normally activated antimicrobial from Example 10a in the water for 14 days through static drinkers; dose rate of 30 mg/kg/day. The other ten chickens were the Control Group.
Both groups of chickens were weighed on days 0, 4, 7, 11 and 14. At the completion of the trial all chickens were euthanised, and the treated chickens were autopsied post mortem. A thorough gross examination of the thoracic and abdominal cavities was performed.

`COC(=O)c1ccc(O)cc1` [Methyl Paraben] showed an MKC (E. coli; inoculum 9.6 × 10^8 cfu/mL, polymer 0.2% w/w, Methyl Paraben 1% w/w, in 80% w/w glycerol, mix as ratio) of 2500, an MKC (S. aureus; inoculum 1.3 × 10^9 cfu/mL, polymer 0.2% w/w, Methyl Paraben 1% w/w, in 80% w/w glycerol, mix as ratio) of 2500 and an MKC (A. niger; inoculum 2.2 × 10^7 cfu/mL, Methyl Paraben 1% w/w, in 80% w/w glycerol, mix as ratio) of 10000. The MKC (C. albicans; inoculum 1.1 × 10^7 cfu/mL, Methyl Paraben 1% w/w, in 80% w/w glycerol) was 1250 and the MKC (P. aeruginosa; inoculum 1.8 × 10^9 cfu/mL, polymer 0.2% w/w, Methyl Paraben 1% w/w, in 80% w/w glycerol, mix as ratio) was 1250.
In the case of `O=C(O)CN(CCN(CC(=O)O)CC(=O)O)CC(=O)O` [EDTA], the MKC (E. coli; inoculum 1.0 × 10^9 cfu/mL, polymer 0.2% w/w, EDTA 0.1% w/w, mix as ratio) was greater than 1000, the MKC (S. aureus; inoculum 1.3 × 10^9 cfu/mL, polymer 0.2% w/w, EDTA 0.1% w/w, mix as ratio) was greater than 1000 and the MKC (A. niger; inoculum 3.0 × 10^7 cfu/mL, EDTA 0.1% w/w, mix as ratio polymeric antimicrobial:preservative) was greater than 1000. It also gave an MKC (C. albicans; inoculum 3.2 × 10^6 cfu/mL, EDTA 0.1% w/w) of 1000 and an MKC (P. aeruginosa; inoculum 9.4 × 10^8 cfu/mL, polymer 0.2% w/w, EDTA 0.1% w/w, mix as ratio) of 1000.
`O=CCCCC=O` [Glutaraldehyde] gave an MKC (E. coli; inoculum 1.6 × 10^9 cfu/mL, polymer 0.025% w/w, Glutaraldehyde 0.025% w/w) of 3.5, an MKC (S. aureus; inoculum 1.5 × 10^9 cfu/mL, polymer 0.025% w/w, Glutaraldehyde 0.025% w/w) of 7 and an MKC (A. niger; inoculum 3.3 × 10^7 cfu/mL, Glutaraldehyde 0.025% w/w start solutions, mix as ratio polymeric antimicrobial:preservative) greater than 250. It also gave an MKC (C. albicans; inoculum 3.0 × 10^6 cfu/mL, Glutaraldehyde 0.025% w/w) of 125 and an MKC (P. aeruginosa; inoculum 1.9 × 10^9 cfu/mL, polymer 0.025% w/w, Glutaraldehyde 0.025% w/w) of 31.
With “poly(2-propenal, 2-propenoic acid) [Example 10a]” the “clinical or pathological signs of toxicity at gross examination post-mortem” value [1] was “no clinical or pathological signs of toxicity were evident”.
